According to patent US20080206253A1, “Method For Preventing or Treating Pain in a Mammal” (priority 2005, published 2008):
Entries after “also recorded” stand apart in the source; their conditions may differ. Marks after values point to notes of the source that are not given here.

Key:
p38β = experiment: Western blot of spinal p38β protein expression after IT antisense; assay type: in vivo, rat; conditions: for p38β protein expression, % Expression Compared to Missense: spinal cord at day six, MS=100%, mean ±SEM n=6; for spinal p38β protein expression compared to missense (MS)-treated animals (in words): five days of IT bolus injections, p38β AS 10-20 μg (10 and 20 μg: P<0.05), p38α AS 10-30 μg
Excerpt: It has previously been shown that inhibition of spinal p38 MAP kinase prevents both inflammation-evoked hyperalgesia and nerve injury-induced allodynia. Ji et al., Neuron 36: 57-68, 2002; Schafers et al., J Neurosci 23: 2517-2521, 2003; Svensson et al., Neuroreport 14: 1153-1157, 2003a.; Svensson et al., J Neurochem 86: 1534-1544, 2003b. It still remains to be determined whether only one or both of the p38 isoforms, that are present in the spinal cord, are involved in modulation of spinal nociceptive processing. Since there is no specific p38 isoform inhibitors available, rats were treated intrathecally with isoform specific antisense oligonucleotides (AS) in order to knock down p38α and p38β respectively. […] There were no differences between the AS-, MS- or vehicle-treated groups in terms of weight gain or motor function. The specificity of the effects of these two antisense oligonucleotides was also examined. Western blot membranes were stripped and re-incubated the with the other p38 isoform antibody. […] In Table 1, antisense was given IT once daily for 5 days and protein expression assayed in spinal chord at day six compared to protein level detected in missense treated animals (MS=100%). Each group represents mean ±SEM, n=6 per group. (*) represents P<0.05 as compared to the missense group.
Antisense oligonucleotides. Three oligonucleotides (a kind gift from ISIS Pharmaceuticals Inc.) with lengths of 20 nucleotides were employed in the study: ISIS 101757 (p38α AS) […], beginning at position 1081 in the rat p38α mRNA; ISIS 107211 (p38βAS) […], beginning at position 439 in the rat p38β mRNA; and ISIS141923 (an universe MS control) […]. These oligonucleotides were synthesized as 2′-methoxyethyl (MOE) phosphorothioate chimeric oligonucleotides in which the first and last five bases contained MOE modifications with a uniform phosphorothioate backbone. Butler et al., Diabetes 51: 1028-1034, 2002. The oligonucleotides were dissolved in artificial cerebrospinal fluid (ACSF) immediately prior to intrathecal administration. The ACSF contained (mM) 151.1 Na+, 2.6 K+, 0.9 Mg2+, 1.3 Ca 2+, 122.7 Cl−, 21.0 HCO3, 2.5 HPO4 and was bubbled with 95% O2/5% CO2 before use to adjust the final pH to 7.2. AS and MS (10-30 μg) was administrated in 10 μl ACSF followed by 10 μl saline daily for five days and behavioral experiments and spinal tissue collection performed on day six.
Western blot. Prior to sacrifice, rats were deeply anesthetized and after decapitation the spinal cords were ejected from the vertebral column by a saline-filled syringe. The lumbar part of the spinal cord was immediately homogenized in extraction buffer (50 mM Tris buffer, pH 8.0, containing 0.5% Triton X-100, 150 mM NaCl, 1 mM EDTA, phosphatase and protease inhibitors) by sonication. The tissue extracts were subjected to denaturing NuPAGE 4-12% Bis-Tris gel electrophoresis and then transferred to nitrocellulose membranes (Micronic Separation Inc. Westborough, Mass.). After blocking nonspecific binding sites with 5% low-fat milk in PBS containing 0.1% Tween 20 (PBS-T) for 1 hour in room temperature, the membranes were incubated with antibodies overnight at 4° C. After washing, the antibody-protein complexes were probed with appropriate secondary antibodies labeled with horseradish peroxidase for 1 hr at room temperature and detected with chemiluminescent reagents (SuperSignal, Pierce, Rockford, Ill.). […]

[1] = system: rats, formalin-injected hind paw; experiment: Formalin-induced flinching (paw formalin test); assay type: in vivo, rat
Description: In recent work it was shown that inhibition of spinal p38 MAP kinase attenuated formalin-induced flinching. Svensson et al., J Neurochem 86: 1534-1544, 2003b. To examine the contribution of p38α and p38β in this experimental model of hyperalgesia, animals were injected with p38α, p38β AS or MS IT for five days. These animals were then examined on the formalin test. Unilateral intraplantar formalin solution (2.5%) caused a biphasic flinching pattern where the first 9 minutes are referred to as phase I and the following 50 minutes (min 10-60) as phase II. Yaksh et al., J Neurosci 21: 5847-5853, 2001a. The phase II flinching is considered to represent afferent input initiated spinal facilitation. Dickenson and Sullivan, Neurosci Lett 83: 207-211, 1987; Puig and Sorkin, Pain 64: 345-355, 1996. […] To further confirm the role of p38 to injury-induced pain behavior, a pharmacological inhibitor was also studied: SB203580, a p38α/β non-selective inhibitor.
To quantify formalin induced flinching, an automated sensing system was employed. Yaksh et al., J Appl Physiol 90: 2386-2402, 2001b. Briefly, a soft metal band was placed on the hind paw of the animal being tested. Animals were allowed to acclimate in individual Plexiglas chambers for 30 min before being moved to a test chamber. Just before the animals were placed into the test chamber, they were briefly restrained in a cloth towel, and 2.5% formalin (50 μl) was injected into the dorsal side of the banded paw. Nociceptive behavior was quantified by automatically counting the incidences of spontaneous flinching or shaking of the injected paw. The flinches were counted for 1-min periods for 60 minutes and the flinch data are expressed as number of flinches per min and total flinches observed during phase I (0-9 min) and phase II (10-60 min).

Substance | p38β protein expression, % Expression Compared to Missense (p38β; IT antisense 30 μg once daily for 5 days) | spinal p38β protein expression compared to missense (MS)-treated animals (in words) (p38β) | total number of flinches during phase I or II ([1]; IT oligonucleotide daily for 5 days, 2.5% formalin into paw, compared with IT saline or MS) | p38β protein expression, % Expression Compared to Missense (p38β; IT antisense 10 μg once daily for 5 days) | p38β protein expression, % Expression Compared to Missense (p38β; IT antisense 20 μg once daily for 5 days) | number of flinches during phase two ([1]; IT p38β AS (3-20 μg) daily for 5 days, compared to saline and MS treated animals, P<0.05 (10 and 20 μg))
p38α AS: 20-nucleotide 2′-MOE phosphorothioate chimeric antisense AGGTGCTCAGGACTCCATTT, beginning at position 1081 in the rat p38α mRNA (all phosphorothioate, sugars by position and methylation of C not given here; 2'-MOE chimeric (gapmer) antisense) | 111 ± 15% | neither p38α AS nor p38β AS produced a reduction of the protein expression of the other isoform | did not differ; also recorded: no statistical difference | – | – | –
p38β AS: 20-nucleotide 2′-MOE phosphorothioate chimeric antisense GTATGTCCTCCTCGCGTGGA, beginning at position 439 in the rat p38β mRNA (all phosphorothioate, sugars by position and methylation of C not given here; 2'-MOE chimeric (gapmer) antisense) | – | significant down-regulation; also recorded: knocked down | – | 45 ± 9* % | 39 ± 12* % | statistical significant reduction; also recorded: statistically different
